Earlier results, collected in patent EP3771336A1, “REPELLENT COMPOSITION” (priority 2019, dated 2021).
Converted amounts (≈) assume the structure as drawn.

Tests used:
Daphnia magna = conditions: aquatic toxicity, daphnids
[1] = at 25°C

In the case of `CCCCCCCCCC(=O)O` [Decanoic acid], the EC50 (Daphnia magna) is listed as 16 mg/L (≈ 92.9 µM) and the vapor pressure [1] is listed as 4.88 x 10^-5 kPa.
In the case of `CCCCCCCCCCCC(=O)OC(C)C` [IPL, propan-2-yl dodecanoate], the solubility in water is listed as “poor solubility in water”.
In the case of `CCCCCCCCCCCCCCCC(=O)OC(C)C` [IPP, propan-2-yl hexadecanoate], the solubility in water is given as “immiscible with water”.
In the case of `CCCCCCCCCCCC(=O)O` [lauric acid, dodecanoic acid], the vapor pressure [1] is given as 2.13 x 10^-6 kPa and the solubility in water is given as “poorly soluble in water”.
